Measurements published in ChEMBL document CHEMBL2413072, “Synthesis and in vitro anticancer studies of novel C-2 arylidene congeners of lantadenes” (2013).

How the values were obtained:
Format in all cases: functional
K562 = test: Growth inhibition of human K562 cells assessed as cell growth at 10 uM by sulforhodamine B assay; conditions: read-out: Activity
T47D [1] = test: Growth inhibition of human T47D cells assessed as growth inhibition at 10 uM by sulforhodamine B assay; conditions: read-out: GI
BT-549 [2] = test: Growth inhibition of human BT549 cells assessed as growth inhibition at 10 uM by sulforhodamine B assay; conditions: read-out: GI
MDA-MB-231 [3] = test: Growth inhibition of human MDA-MB-231 cells assessed as growth inhibition at 10 uM by sulforhodamine B assay; conditions: read-out: GI
MCF7 [4] = test: Growth inhibition of human MCF7 cells assessed as growth inhibition at 10 uM by sulforhodamine B assay; conditions: read-out: GI
DU-145 = test: Growth inhibition of human DU145 cells assessed as growth inhibition at 10 uM by sulforhodamine B assay; conditions: read-out: GI
PC-3 [5] = test: Growth inhibition of human PC3 cells assessed as growth inhibition at 10 uM by sulforhodamine B assay; conditions: read-out: GI
UO-31 = test: Growth inhibition of human UO31 cells assessed as growth inhibition at 10 uM by sulforhodamine B assay; conditions: read-out: GI
CAKI-1 = test: Growth inhibition of human CAKI-1 cells assessed as growth inhibition at 10 uM by sulforhodamine B assay; conditions: read-out: GI
[6] = Growth inhibition of human NCI-ADR-RES cells assessed as growth inhibition at 10 uM by sulforhodamine B assay; conditions: read-out: GI
UACC-257 = test: Growth inhibition of human UACC257 cells assessed as growth inhibition at 10 uM by sulforhodamine B assay; conditions: read-out: GI
SK-MEL-2 = test: Growth inhibition of human SK-MEL-2 cells assessed as growth inhibition at 10 uM by sulforhodamine B assay; conditions: read-out: GI
SK-MEL-28 = test: Growth inhibition of human SK-MEL-28 cells assessed as growth inhibition at 10 uM by sulforhodamine B assay; conditions: read-out: GI
MDA-MB-435 = test: Growth inhibition of human MDA-MB-435 cells assessed as growth inhibition at 10 uM by sulforhodamine B assay; conditions: read-out: GI
M14 = test: Growth inhibition of human M14 cells assessed as growth inhibition at 10 uM by sulforhodamine B assay; conditions: read-out: GI
U-251 [7] = test: Growth inhibition of human U251 cells assessed as growth inhibition at 10 uM by sulforhodamine B assay; conditions: read-out: GI
SNB-75 = test: Growth inhibition of human SNB75 cells assessed as growth inhibition at 10 uM by sulforhodamine B assay; conditions: read-out: GI
SNB-19 = test: Growth inhibition of human SNB19 cells assessed as growth inhibition at 10 uM by sulforhodamine B assay; conditions: read-out: GI
SF-539 [8] = test: Growth inhibition of human SF539 cells assessed as growth inhibition at 10 uM by sulforhodamine B assay; conditions: read-out: GI
SF-268 = test: Growth inhibition of human SF268 cells assessed as growth inhibition at 10 uM by sulforhodamine B assay; conditions: read-out: GI
KM12 [9] = test: Growth inhibition of human KM12 cells assessed as growth inhibition at 10 uM by sulforhodamine B assay; conditions: read-out: GI
[10] = Growth inhibition of human HCC2998 cells assessed as growth inhibition at 10 uM by sulforhodamine B assay; conditions: HCC 2998, read-out: GI
COLO 205 = test: Growth inhibition of human COLO205 cells assessed as growth inhibition at 10 uM by sulforhodamine B assay; conditions: read-out: GI
NCI-H522 = test: Growth inhibition of human NCI-H522 cells assessed as growth inhibition at 10 uM by sulforhodamine B assay; conditions: read-out: GI
A549 = test: Growth inhibition of human A549/ATCC cells assessed as growth inhibition at 10 uM by sulforhodamine B assay; conditions: read-out: GI
SR = test: Growth inhibition of human SR cells assessed as growth inhibition at 10 uM by sulforhodamine B assay; conditions: read-out: GI
T47D [11] = test: Growth inhibition of human T47D cells assessed as cell growth at 10 uM by sulforhodamine B assay; conditions: read-out: Activity
BT-549 [12] = test: Growth inhibition of human BT549 cells assessed as cell growth at 10 uM by sulforhodamine B assay; conditions: read-out: Activity
[13] = Growth inhibition of human Hs 578T cells assessed as cell growth at 10 uM by sulforhodamine B assay; conditions: read-out: Activity
MDA-MB-231 [14] = test: Growth inhibition of human MDA-MB-231 cells assessed as cell growth at 10 uM by sulforhodamine B assay; conditions: read-out: Activity
MCF7 [15] = test: Growth inhibition of human MCF7 cells assessed as cell growth at 10 uM by sulforhodamine B assay; conditions: read-out: Activity
PC-3 [16] = test: Growth inhibition of human PC3 cells assessed as cell growth at 10 uM by sulforhodamine B assay; conditions: read-out: Activity
SN12C = test: Growth inhibition of human SN12C cells assessed as cell growth at 10 uM by sulforhodamine B assay; conditions: read-out: Activity
RXF 393 = test: Growth inhibition of human RXF393 cells assessed as cell growth at 10 uM by sulforhodamine B assay; conditions: read-out: Activity
ACHN = test: Growth inhibition of human ACHN cells assessed as cell growth at 10 uM by sulforhodamine B assay; conditions: read-out: Activity
786-0 = test: Growth inhibition of human 786-0 cells assessed as cell growth at 10 uM by sulforhodamine B assay; conditions: read-out: Activity
OVCAR-3 = test: Growth inhibition of human OVCAR3 cells assessed as cell growth at 10 uM by sulforhodamine B assay; conditions: read-out: Activity
UACC-62 = test: Growth inhibition of human UACC62 cells assessed as cell growth at 10 uM by sulforhodamine B assay; conditions: read-out: Activity
SK-MEL-5 = test: Growth inhibition of human SK-MEL-5 cells assessed as cell growth at 10 uM by sulforhodamine B assay; conditions: read-out: Activity
LOX IMVI = test: Growth inhibition of human LOXIMVI cells assessed as cell growth at 10 uM by sulforhodamine B assay; conditions: read-out: Activity
U-251 [17] = test: Growth inhibition of human U251 cells assessed as cell growth at 10 uM by sulforhodamine B assay; conditions: read-out: Activity
SF-539 [18] = test: Growth inhibition of human SF539 cells assessed as cell growth at 10 uM by sulforhodamine B assay; conditions: read-out: Activity
KM12 [19] = test: Growth inhibition of human KM12 cells assessed as cell growth at 10 uM by sulforhodamine B assay; conditions: read-out: Activity
HT-29 = test: Growth inhibition of human HT-29 cells assessed as cell growth at 10 uM by sulforhodamine B assay; conditions: read-out: Activity
NCI-H322M = test: Growth inhibition of human NCI-H322M cells assessed as cell growth at 10 uM by sulforhodamine B assay; conditions: read-out: Activity
NCI-H23 = test: Growth inhibition of human NCI-H23 cells assessed as cell growth at 10 uM by sulforhodamine B assay; conditions: read-out: Activity
NCI-H226 = test: Growth inhibition of human NCI-H226 cells assessed as cell growth at 10 uM by sulforhodamine B assay; conditions: read-out: Activity
HOP-92 = test: Growth inhibition of human HOP92 cells assessed as cell growth at 10 uM by sulforhodamine B assay; conditions: read-out: Activity
[20] = Growth inhibition of human EKVX cells assessed as cell growth at 10 uM by sulforhodamine B assay; conditions: read-out: Activity

CC1(C)C[C@@H](O)[C@]2(C(=O)O)CC[C@]3(C)C(=CC[C@@H]4[C@@]5(C)C/C(=C\C=C\c6ccccc6)C(=O)C(C)(C)[C@@H]5CC[C@]43C)[C@@H]2C1
growth at 10 µM (K562): 32.4% | inhibition of growth at 10 µM (T47D [1]): 62.4% | inhibition of growth at 10 µM (BT-549 [2]): 30% | inhibition of growth at 10 µM (MDA-MB-231 [3]): 31.1% | inhibition of growth at 10 µM (MCF7 [4]): 66.2% | inhibition of growth at 10 µM (DU-145): 28.8% | inhibition of growth at 10 µM (PC-3 [5]): 58.5% | inhibition of growth at 10 µM (UO-31): 59.7% | inhibition of growth at 10 µM (CAKI-1): 57% | inhibition of growth at 10 µM [6]: 23.8% | inhibition of growth at 10 µM (UACC-257): 38% | inhibition of growth at 10 µM (SK-MEL-2): 35.4% | inhibition of growth at 10 µM (SK-MEL-28): 25.8% | inhibition of growth at 10 µM (MDA-MB-435): 27.7% | inhibition of growth at 10 µM (M14): 27.1% | inhibition of growth at 10 µM (U-251 [7]): 66.4% | inhibition of growth at 10 µM (SNB-75): 27.9% | inhibition of growth at 10 µM (SNB-19): 26.6% | inhibition of growth at 10 µM (SF-539 [8]): < 10% | inhibition of growth at 10 µM (SF-268): 29.3% | inhibition of growth at 10 µM (KM12 [9]): 68.2% | inhibition of growth at 10 µM [10]: 17.2% | inhibition of growth at 10 µM (COLO 205): < 10% | inhibition of growth at 10 µM (NCI-H522): 52.3% | inhibition of growth at 10 µM (A549): 77.3% | inhibition of growth at 10 µM (SR): 37.4% | growth at 10 µM (T47D [11]): 37.6% | growth at 10 µM (BT-549 [12]): 70% | growth at 10 µM [13]: 58.4% | growth at 10 µM (MDA-MB-231 [14]): 68.9% | growth at 10 µM (MCF7 [15]): 33.8% | growth at 10 µM (PC-3 [16]): 41.5% | growth at 10 µM (SN12C): 45.5% | growth at 10 µM (RXF 393): 84.1% | growth at 10 µM (ACHN): 41.9% | growth at 10 µM (786-0): 78.1% | growth at 10 µM (OVCAR-3): 57.3% | growth at 10 µM (UACC-62): 50.4% | growth at 10 µM (SK-MEL-5): 73.7% | growth at 10 µM (LOX IMVI): 61.4% | growth at 10 µM (U-251 [17]): 33.6% | growth at 10 µM (SF-539 [18]): 91.9% | growth at 10 µM (KM12 [19]): 31.8% | growth at 10 µM (HT-29): 51.7% | growth at 10 µM (NCI-H322M): 71.9% | growth at 10 µM (NCI-H23): 59.7% | growth at 10 µM (NCI-H226): 72.3% | growth at 10 µM (HOP-92): 49.2% | growth at 10 µM [20]: 39.4%
